Test results taken from article PMC6522510 (Nature Communications, 2019).
Structures can show the parent of a compound that is named as a salt. Where two headings read alike, the source gives them in different places.

Columns and labels:
Design in all cases: species or system AML cell lines (8); Primary HTS, single concentration about 10 uM, Cell Titer Glo viability; log10 luminescence, per cent inhibition relative to cycloheximide control
Conditions in all cases: 72 h, relative to cycloheximide control, log10 luminescence, inhibitor
[1] = test system: CHRF288-11
[2] = test system: CMK
[3] = test system: CMS
[4] = test system: M07e
[5] = test system: ML-2
[6] = test system: MOLM-13
[7] = test system: MV4-11
[8] = test system: U937

SMILES | CHRF288-11 %inh [1] [%] | CMK %inh [2] [%] | CMS %inh [3] [%] | M07e %inh [4] [%] | ML-2 %inh [5] [%] | MOLM-13 %inh [6] [%] | MV4-11 %inh [7] [%] | U937 %inh [8] [%] | CHRF288-11 %inh ([1]; CHRF288-11 %inh, 10 µM) [%] | CMK %inh ([2]; CMK %inh, 10 µM) [%] | CMS %inh ([3]; CMS %inh, 10 µM) [%] | M07e %inh ([4]; M07e %inh, 10 µM) [%] | ML-2 %inh ([5]; ML-2 %inh, 10 µM) [%] | MOLM-13 %inh ([6]; MOLM-13 %inh, 10 µM) [%] | MV4-11 %inh ([7]; MV4-11 %inh, 10 µM) [%] | U937 %inh ([8]; U937 %inh, 10 µM) [%]
CCCCc1ncc(/C=C(\Cc2cccs2)C(=O)O)n1Cc1ccc(C(=O)O)cc1 [SJ000556755-1, EPROSARTAN MESYLATE] | 1.693 | 1.513 | 2.254 | 2.786 | 1.173 | -0.5594 | -5.649 | 2.452 | – | – | – | – | – | – | – | –
CO/N=C1\CN(c2nc3c(cc2F)c(=O)c(C(=O)O)cn3C2CC2)CC1CN (stereo not shown) [SJ000556758-1, GEMIFLOXACIN MESILATE] | 4.811 | 10.74 | 4.675 | 5.532 | 0.2536 | 8.66 | 8.469 | 9.491 | – | – | – | – | – | – | – | –
CCCCCCCN(CC)CCCC(O)c1ccc(NS(C)(=O)=O)cc1 (stereo not shown) [SJ000556760-1, IBUTILIDE FUMARATE] | 6.024 | 2.977 | 0.3403 | 2.78 | -1.379 | 2.626 | 3.1 | 0.6889 | – | – | – | – | – | – | – | –
COC(C)(C)CCCC(C)C/C=C/C(C)=C/C(=O)O (stereo not shown) [SJ000561041-1, METHOPRENE ACID] | 30.54 | 2.394 | -2.29 | -0.2291 | -0.2588 | -0.01315 | 6.95 | 1.555 | – | – | – | – | – | – | – | –
O=Cc1c2[nH]c3ccccc3c2cc2[nH]c3ccccc3c12 [SJ000561043-1, 6-FORMYLINDOLO [3,2-B] CARBAZOLE] | 8.34 | 0.1175 | 2.828 | 3.515 | 1.695 | 1.501 | 15.88 | -0.0231 | – | – | – | – | – | – | – | –
CC(C)(O)[C@H]1O[C@H]2CC[C@@]3(C)[C@@](O)(CC[C@H]4Cc5c([nH]c6ccccc56)[C@@]43C)C2=CC1=O [SJ000561050-1, PAXILLINE] | 3.611 | 7.96 | 1.09 | -0.09318 | 3.934 | 2.78 | 1.599 | 7.084 | – | – | – | – | – | – | – | –
CC(C)[C@@H](O)CC[C@@H](C)[C@H]1CC[C@H]2[C@@H]3CC=C4C[C@@H](O)CC[C@]4(C)[C@H]3CC[C@]12C [SJ000561051-1, 24(S)-HYDROXYCHOLESTEROL] | -3.422 | -0.3911 | -2.331 | -2.462 | 0.6767 | -1.323 | -0.7822 | -0.5103 | – | – | – | – | – | – | – | –
C[C@H](CC[C@@H]1OC1(C)C)[C@H]1CC[C@H]2[C@@H]3CC=C4C[C@@H](O)CC[C@]4(C)[C@H]3CC[C@]12C [SJ000561052-1, 24(S),25-EPOXYCHOLESTEROL] | 7.379 | 11.77 | 1.576 | 0.1627 | -2.235 | -3.183 | -1.379 | -2.032 | – | – | – | – | – | – | – | –
CC(C)=CCC[C@]1(C)[C@@H](CC=C(C)C)C[C@@]2(CC=C(C)C)C(=O)[C@]1(C(=O)C(C)C)C(=O)C(CC=C(C)C)=C2O [SJ000561062-1, HYPERFORIN] | 6.256 | 3.171 | -0.1771 | 1.526 | 4.019 | 0.05204 | 2.302 | 1.156 | – | – | – | – | – | – | – | –
C=CC[C@@H]1[C@H](O)CC[C@@]2(C)[C@H]1CC[C@@H]1[C@@H]2CC[C@]2(C)[C@@H]([C@H](C)CCCC(C)C)CC[C@@H]12 [SJ000561065-1, LY 295427] | -1.753 | -3.189 | -1.154 | 2.452 | 0.971 | 1.105 | 0.6492 | 1.28 | – | – | – | – | – | – | – | –
CC(C)=CCC/C(C)=C/CC/C(C)=C/CC/C(C)=C/CO [SJ000561066-1, GERANYLGERANIOL] | 0.138 | -0.4924 | 3.121 | 0.9105 | 1.709 | -0.5636 | 1.567 | 2.958 | – | – | – | – | – | – | – | –
CC1=C(/C=C/C(C)=C/C=C/C(C)=C/C(=O)O)C(C)(C)CCC1O (stereo not shown) [SJ000561070-1, 4-HYDROXYRETINOIC ACID] | -3.112 | 1.361 | 38.35 | 7.941 | 5.11 | 7.362 | 34.76 | 18.11 | – | – | – | – | – | – | – | –
CCC1(CC)C(=O)NC(=O)N(C)C1=O [SJ000562691-1, METHARBITAL] | 3.211 | -5.926 | -4.139 | -1.141 | -0.4535 | -1.73 | 0.7749 | -1.698 | – | – | – | – | – | – | – | –
N=C1NC(=O)N2CC12 (stereo not shown) [SJ000564440-1, IMEXON] | 28.3 | -0.6297 | 13.09 | 3.11 | 2.993 | 4.482 | 2.121 | 11.23 | – | – | – | – | – | – | – | –
CC(C)C(=O)OCC(=O)[C@@]12O[C@H](C3CCCCC3)O[C@@H]1C[C@H]1[C@@H]3CCC4=CC(=O)C=C[C@]4(C)[C@H]3[C@@H](O)C[C@@]12C [SJ000565158-1, CICLESONIDE] | – | – | – | – | – | – | – | – | 0.4753 | 2.034 | -0.07433 | -1.566 | -1.054 | 4.252 | -5.442 | -2.58
CC(C)C(=O)OCC(=O)[C@@]12O[C@H](C3CCCCC3)O[C@@H]1C[C@H]1[C@@H]3CCC4=CC(=O)C=C[C@]4(C)[C@H]3[C@@H](O)C[C@@]12C [SJ000565158-2, CICLESONIDE] | – | – | – | – | – | – | – | – | 3.888 | 0.8609 | 2.27 | 1.744 | -2.112 | -0.3458 | -3.886 | 6.134
CC(C)Nc1cccnc1N1CCN(C(=O)c2cc3cc(NS(C)(=O)=O)ccc3[nH]2)CC1 [SJ000565159-1, DELAVIRDINE MESYLATE] | -4.194 | -2.785 | -2.71 | -1.136 | -1.959 | 5.504 | 1.25 | 0.4896 | – | – | – | – | – | – | – | –
O=C(O[C@@H]1C[C@@H]2C[C@H]3C[C@H](C1)N2CC3=O)c1c[nH]c2ccccc12 [SJ000565162-1, DOLASETRON MESYLATE] | -2.852 | 0.6983 | -2.789 | 0.4101 | 0.9019 | 27.78 | -0.3278 | -1.048 | – | – | – | – | – | – | – | –
Cc1ccccc1N1CCN(CCc2nnc3n2CCCC3)CC1 [SJ000565164-1, DAPIPRAZOLE HYDROCHLORIDE] | – | – | – | – | – | – | – | – | 8.203 | -9.616 | -1.478 | -1.247 | 2.518 | 25.76 | -2.751 | -2.961
Cc1ccccc1N1CCN(CCc2nnc3n2CCCC3)CC1 [SJ000565164-2, DAPIPRAZOLE HYDROCHLORIDE] | – | – | – | – | – | – | – | – | 1.908 | -2.237 | -0.5071 | 0.4169 | 1.742 | 3.696 | 0.3008 | -1.057
